Data from patent publication US9493412B2, “Pyrrolinone carboxamide compounds useful as endothelial lipase inhibitors” (BRISTOL-MYERS SQUIBB COMPANY, priority 2011, dated 2016).

Target: endothelial lipase (EL) (Homo sapiens (Human), UniProt Q9Y5X9)
Test: Endothelial lipase (EL) enzymatic assay with fluorescent substrate A10070 in DMPG vesicles
Assay type: biochemical
Details: conditioned media from HT-1080 cells overexpressing endogenous EL; 20 min preincubation at 37° C.; read-out: HLE_EL_CRC IC50
Experimental: Endothelial lipase activity was measured using a fluorescent substrate, A10070, (Invitrogen, CA) doped into an artificial vesicle containing DMPG (Avanti Polar Lipids) as the excipient. Vesicles were prepared by combining 285 uL of 1 mM
DMPG in a 1:1 mixture of MeOH and CHCl3 with 15 uL of 1 mM A10070 in a 1:1 mixture of MeOH and CHCl3. The mixture was dried under nitrogen and resuspended in 150 uL of 50 mM HEPES pH 8.0 buffer containing 100 mM NaCl and 0.2 mM EDTA. The sample was allowed to sit at rt for 15 min and then was sonicated 3×4 mins on ice with a Branson Sonicator using duty cycle 1. This preparation provides vesicles with a mole fraction of 0.05 for the FRET substrate.
The enzymatic assay was measured using white, opaque 96-well half area plates. Each well contained 60 uL of assay buffer (50 mM HEPES pH 8.0, 50 mM NaCl and 1 mM CaCl2) and 2 ul of a DMSO solution containing compound of interest. Conditioned media obtained from HT-1080 cells, which were transformed by RAGE technology (Athersys) to overexpress endogenous EL, was added and the reaction was allowed to incubate for 20 min at 37° C. with gentle agitation. The reaction was started by the addition of 20 uL of a 1:4 dilution of vesicles. The final total reaction volume was 100 uL. The reaction rates were measured on a Gemini plate reader with an excitation wavelength of 488 nm and a emission of 530 nm. Readings were taken every 20 seconds for 10 min with agitation between each reading. The slope of the linear portion of the readout was used to calculate the rate of the reaction.
The exemplified examples disclosed in the present invention were tested in the EL assay described above and found having EL inhibitory activity.

Chain of endothelial lipase (EL) (Q9Y5X9 21-500): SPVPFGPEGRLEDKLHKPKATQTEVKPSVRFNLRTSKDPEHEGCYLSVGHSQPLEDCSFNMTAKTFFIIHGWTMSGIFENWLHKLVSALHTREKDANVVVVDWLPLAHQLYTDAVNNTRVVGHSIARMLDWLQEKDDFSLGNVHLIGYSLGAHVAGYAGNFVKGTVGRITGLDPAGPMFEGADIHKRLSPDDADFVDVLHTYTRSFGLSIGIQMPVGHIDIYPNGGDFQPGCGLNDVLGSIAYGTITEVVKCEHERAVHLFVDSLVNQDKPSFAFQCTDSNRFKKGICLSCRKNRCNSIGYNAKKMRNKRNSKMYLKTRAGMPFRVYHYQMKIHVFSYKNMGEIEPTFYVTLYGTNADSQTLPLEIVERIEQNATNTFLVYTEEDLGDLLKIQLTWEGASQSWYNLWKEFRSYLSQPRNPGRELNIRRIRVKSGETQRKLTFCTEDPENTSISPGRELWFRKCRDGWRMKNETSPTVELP

| SMILES | IC50 |
| --- | --- |
| CN1CC(C(=O)NCc2ccc(C(=O)N3CCCCC3)cc2)=C(O)C1=O [Example 24, 4-hydroxy-1-methyl-5-oxo-N-(4-(piperidine-1-carbonyl)benzyl)-2,5-dihydro-1H-pyrrole-3-carboxamide] | 9.29 µM |
| O=C(N[C@H]1CC[C@@H](c2ccccc2)CC1)C1=C(O)C(=O)N(CC(F)(F)C(F)(F)F)C1 [Example 169, 4-hydroxy-5-oxo-1-(2,2,3,3,3-pentafluoropropyl)-N-(cis-4-phenylcyclohexyl)-2,5-dihydro-1H-pyrrole-3-carboxamide] | 7.17 µM |
| C[C@@H](NC(=O)C1=C(O)C(=O)N(C)C1)c1cccc(-c2cccc(C#N)c2)c1 [Example 96, (R)-N-(1-(3′-cyanobiphenyl-3-yl)ethyl)-4-hydroxy-1-methyl-5-oxo-2,5-dihydro-1H-pyrrole-3-carboxamide] | 0.277 µM |
| CNCCCN1CC(C(=O)N[C@H]2CC[C@@H](c3ccccc3)CC2)=C(O)C1=O [Example 181, 4-hydroxy-1-(3-(methylamino)propyl)-5-oxo-N-(cis-4-phenylcyclohexyl)-2,5-dihydro-1H-pyrrole-3-carboxamide] | 5.73 µM |
| O=C(N[C@H]1CC[C@@H](c2ccccc2)CC1)C1=C(O)C(=O)N(CCS(=O)(=O)c2ccccc2)C1 [Example 172, 4-hydroxy-5-oxo-N-(cis-4-phenylcyclohexyl)-1-(2-(phenylsulfonyl)ethyl)-2,5-dihydro-1H-pyrrole-3-carboxamide] | 4.72 µM |
| O=C(N[C@H]1CC[C@@H](c2ccccc2)CC1)C1=C(O)C(=O)N(C2CCN(c3ccc(F)cc3)CC2)C1 [Example 179, 1-(1-(4-fluorophenyl)piperidin-4-yl)-4-hydroxy-5-oxo-N-(cis-4-phenylcyclohexyl)-2,5-dihydro-1H-pyrrole-3-carboxamide] | 3.09 µM |
| CN1CC(N2CC(C(=O)N[C@H]3CC[C@@H](c4ccccc4)CC3)=C(O)C2=O)CC1=O (stereo partly drawn) [Example 196, 4-hydroxy-1-(1-methyl-5-oxopyrrolidin-3-yl)-5-oxo-N-(cis-4-phenylcyclohexyl)-2,5-dihydro-1H-pyrrole-3-carboxamide] | 8.25 µM |
| CC(=O)c1cccc(-c2cccc(CNC(=O)C3=C(O)C(=O)N(C)C3)c2)c1 [Example 66, N-((3′-acetylbiphenyl-3-yl)methyl)-4-hydroxy-1-methyl-5-oxo-2,5-dihydro-1H-pyrrole-3-carboxamide] | 0.285 µM |
| CN1CC(C(=O)NCC2CCN(C(=O)c3ccc(Cl)c(Cl)c3)CC2)=C(O)C1=O [Example 157, N-((1-(3,4-dichlorobenzoyl)piperidin-4-yl)methyl)-4-hydroxy-1-methyl-5-oxo-2,5-dihydro-1H-pyrrole-3-carboxamide] | 4.84 µM |
| CN(CCN1CC(C(=O)N[C@H]2CC[C@@H](c3ccccc3)CC2)=C(O)C1=O)C(=O)/C=C/C(F)(F)F [Example 178, 4-hydroxy-5-oxo-N-(cis-4-phenylcyclohexyl)-1-(2-((E)-4,4,4-trifluoro-N-methylbut-2-enamido)ethyl)-2,5-dihydro-1H-pyrrole-3-carboxamide] | 9.92 µM |
| CN1CC(C(=O)NC2CC[C@H](c3ccccc3)C2)=C(O)C1=O (single isomer, unassigned; isomer a) [Example 173] | 8.47 µM |
| CN(CCN1CC(C(=O)N[C@H]2CC[C@@H](c3ccccc3)CC2)=C(O)C1=O)c1ccccc1 [Example 210, 4-hydroxy-1-(2-(methyl(phenyl)amino)ethyl)-5-oxo-N-(cis-4-phenylcyclohexyl)-2,5-dihydro-1H-pyrrole-3-carboxamide] | 6.57 µM |
| CCN1CC(C(=O)NCC2CCc3cnc(-c4ccc(Cl)c(Cl)c4)n3C2)=C(O)C1=O (centres unmarked) [Example 214, N-((3-(3,4-Dichlorophenyl)-5,6,7,8-tetrahydroimidazo[1,5-a]pyridin-6-yl)methyl)-1-ethyl-4-hydroxy-5-oxo-2,5-dihydro-1H-pyrrole-3-carboxamide] | 0.46 µM |

The next lines start with the values.

| IC50 | SMILES |
| --- | --- |
| 0.254 µM | CC(=O)NCc1ccc(-c2cccc([C@@H](C)NC(=O)C3=C(O)C(=O)N(C)C3)c2)cc1 [Example 104, (R)-N-(1-(4′-(acetamidomethyl)biphenyl-3-yl)ethyl)-4-hydroxy-1-methyl-5-oxo-2,5-dihydro-1H-pyrrole-3-carboxamide] |
| 0.0154 µM | CC(C)CN1CC(C(=O)NCCCCc2nc(-c3ccc(Cl)c(Cl)c3)no2)=C(O)C1=O [Example 21, N-(4-(3-(3,4-dichlorophenyl)-1,2,4-oxadiazol-5-yl)butyl)-4-hydroxy-1-isobutyl-5-oxo-2,5-dihydro-1H-pyrrole-3-carboxamide] |
| 0.246 µM | CN1CC(C(=O)NCc2cccc(-c3ccccc3Cl)c2)=C(O)C1=O [Example 62, N-((2′-chlorobiphenyl-3-yl)methyl)-4-hydroxy-1-methyl-5-oxo-2,5-dihydro-1H-pyrrole-3-carboxamide] |
| 0.252 µM | O=C(N[C@H]1CC[C@@H](c2ccccc2)CC1)C1=C(O)C(=O)N(CCCC(F)(F)F)C1 [Example 168, 4-hydroxy-5-oxo-N-(cis-4-phenylcyclohexyl)-1-(4,4,4-trifluorobutyl)-2,5-dihydro-1H-pyrrole-3-carboxamide] |
| 0.271 µM | C[C@@H](NC(=O)C1=C(O)C(=O)N(C)C1)c1cccc(-c2cccc(C(F)(F)F)c2)c1 [Example 91, (R)-4-hydroxy-1-methyl-5-oxo-N-(1-(3′-(trifluoromethyl)biphenyl-3-yl)ethyl)-2,5-dihydro-1H-pyrrole-3-carboxamide] |
| 0.27 µM | CN1CC(C(=O)NCc2ccc(OC3CCOCC3)cc2)=C(O)C1=O [Example 22, 4-hydroxy-1-methyl-5-oxo-N-(4-(tetrahydro-2H-pyran-4-yloxy)benzyl)-2,5-dihydro-1H-pyrrole-3-carboxamide] |
| 0.027 µM | CN1CC(C(=O)NCc2ccccc2-c2ccccc2)=C(O)C1=O [Example 18, N-(biphenyl-2-ylmethyl)-4-hydroxy-1-methyl-5-oxo-2,5-dihydro-1H-pyrrole-3-carboxamide] |
| 0.0495 µM | CN1CC(C(=O)NCc2ccc(Oc3ccc(F)cc3)cc2)=C(O)C1=O [Example 8, N-(4-(4-fluorophenoxy)benzyl)-4-hydroxy-1-methyl-5-oxo-2,5-dihydro-1H-pyrrole-3-carboxamide] |
| 0.0321 µM | Cc1ccc(Oc2ccc(CNC(=O)C3=C(O)C(=O)N(C)C3)cc2)c(C)c1 [Example 34, N-(4-(2,4-dimethylphenoxy)benzyl)-4-hydroxy-1-methyl-5-oxo-2,5-dihydro-1H-pyrrole-3-carboxamide] |
| 0.0435 µM | CCN1CC(C(=O)N[C@@H]2CCc3cc(-c4ccccc4)ccc32)=C(O)C1=O [Example 218, (R)-1-ethyl-4-hydroxy-5-oxo-N-(5-phenyl-2,3-dihydro-1H-inden-1-yl)-2,5-dihydro-1H-pyrrole-3-carboxamide] |
| 0.0496 µM | C[C@@H](NC(=O)C1=C(O)C(=O)N(C)C1)c1cccc(-c2cccc(C(N)=O)c2)c1 [Example 103, (R)-N-(1-(3′-carbamoylbiphenyl-3-yl)ethyl)-4-hydroxy-1-methyl-5-oxo-2,5-dihydro-1H-pyrrole-3-carboxamide] |
| 0.257 µM | CN1CC(C(=O)NCc2cccc(-c3ccc(CNS(C)(=O)=O)cc3)c2)=C(O)C1=O [Example 83, 4-hydroxy-1-methyl-N-((4′-(methylsulfonamidomethyl)biphenyl-3-yl)methyl)-5-oxo-2,5-dihydro-1H-pyrrole-3-carboxamide] |
| 0.05 µM | CCN1CC(C(=O)N[C@@H]2CCC(c3ccccc3)c3ccccc32)=C(O)C1=O (stereo partly drawn) [Example 146, 1-ethyl-4-hydroxy-5-oxo-N-((1R)-4-phenyl-1,2,3,4-tetrahydronaphthalen-1-yl)-2,5-dihydro-1H-pyrrole-3-carboxamide] |
| 0.241 µM | CC(=O)NCc1ccc(-c2cccc(CNC(=O)C3=C(O)C(=O)N(C)C3)c2)cc1 [Example 85, N-((4′-(acetamidomethyl)biphenyl-3-yl)methyl)-4-hydroxy-1-methyl-5-oxo-2,5-dihydro-1H-pyrrole-3-carboxamide] |
| 0.246 µM | C[C@@H](NC(=O)C1=C(O)C(=O)N(C)C1)c1cccc(-c2cccc(F)c2)c1 [Example 92, (R)-N-(1-(3′-fluorobiphenyl-3-yl)ethyl)-4-hydroxy-1-methyl-5-oxo-2,5-dihydro-1H-pyrrole-3-carboxamide] |
| 0.249 µM | CN1CC(C(=O)NCc2cccc(-c3ccccc3F)c2)=C(O)C1=O [Example 63, N-((2′-fluorobiphenyl-3-yl)methyl)-4-hydroxy-1-methyl-5-oxo-2,5-dihydro-1H-pyrrole-3-carboxamide] |
